Laboratory results reported in article doi:10.1101/049825v1, “Htm1p-Pdi1p is a folding sensitive mannosidase that marks N-glycoproteins for ER-associated protein degradation” (biorxiv, 2016).

Target: T1, Htm1p-Pdi1p (Saccharomyces cerevisiae, UniProt P38888)
T1 construct: gene MNL1; full-length HTM1 coding region with C-terminal 3xFLAG-HDEL tag (released by TEV), chromosomal TDH3 promoter, strain yJW1820; co-purified with endogenous Pdi1p, near 1:1; with Protein disulfide-isomerase
T1 sequence (P38888 21-796): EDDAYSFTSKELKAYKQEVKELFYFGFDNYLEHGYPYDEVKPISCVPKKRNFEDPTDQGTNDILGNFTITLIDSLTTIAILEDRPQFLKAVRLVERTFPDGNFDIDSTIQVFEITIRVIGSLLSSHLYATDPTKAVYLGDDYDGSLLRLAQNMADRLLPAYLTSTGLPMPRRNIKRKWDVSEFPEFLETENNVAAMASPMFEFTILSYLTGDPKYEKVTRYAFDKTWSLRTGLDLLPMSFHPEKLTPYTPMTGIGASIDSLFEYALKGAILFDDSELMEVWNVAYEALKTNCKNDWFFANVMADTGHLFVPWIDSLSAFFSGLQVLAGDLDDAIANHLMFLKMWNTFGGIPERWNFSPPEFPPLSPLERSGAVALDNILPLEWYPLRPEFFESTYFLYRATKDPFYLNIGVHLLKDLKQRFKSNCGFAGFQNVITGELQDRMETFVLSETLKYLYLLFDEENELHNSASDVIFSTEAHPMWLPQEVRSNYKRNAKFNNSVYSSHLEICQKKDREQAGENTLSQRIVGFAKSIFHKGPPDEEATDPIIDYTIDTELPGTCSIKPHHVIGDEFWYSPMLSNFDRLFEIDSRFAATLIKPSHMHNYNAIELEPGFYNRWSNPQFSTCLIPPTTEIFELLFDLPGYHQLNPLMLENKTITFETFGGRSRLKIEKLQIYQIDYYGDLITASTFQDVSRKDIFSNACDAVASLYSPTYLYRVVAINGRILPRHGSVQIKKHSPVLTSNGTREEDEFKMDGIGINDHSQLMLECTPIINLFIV
T1 sequence (P17967 29-522 partner): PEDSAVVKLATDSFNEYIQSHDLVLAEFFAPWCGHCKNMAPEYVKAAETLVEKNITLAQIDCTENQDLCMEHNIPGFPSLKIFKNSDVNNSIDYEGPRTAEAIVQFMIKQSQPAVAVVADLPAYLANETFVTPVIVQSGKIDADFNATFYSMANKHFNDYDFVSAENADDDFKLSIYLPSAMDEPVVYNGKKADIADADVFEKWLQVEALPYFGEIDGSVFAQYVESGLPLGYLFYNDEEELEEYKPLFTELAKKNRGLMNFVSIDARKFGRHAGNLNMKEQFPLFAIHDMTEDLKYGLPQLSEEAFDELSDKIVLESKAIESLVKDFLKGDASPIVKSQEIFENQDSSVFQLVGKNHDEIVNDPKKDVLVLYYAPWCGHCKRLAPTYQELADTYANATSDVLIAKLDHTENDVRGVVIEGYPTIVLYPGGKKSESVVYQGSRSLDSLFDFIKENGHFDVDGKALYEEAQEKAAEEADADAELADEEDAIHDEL
Assay: MALDI-TOF MS glycan profiling of CPY* (Man8 to Man7 conversion)
Type: biochemical
Settings: glycoprotein substrate CPY* 2 μM, enzyme 0.1 μM, 2 mM CaCl2, pH 7.0, 30°C, 20 h; inhibitor concentration not given

OC[C@H]1NC[C@@H](O)[C@@H](O)[C@@H]1O [1-deoxymannojirimycin]
MALDI-TOF MS glycan profiling of CPY* (Man8 to Man7 conversion): Both chemicals inhibited the generation of Man7 on CPY*
